Assay results: patent US20110207729A1, “BICYCLIC ACYLGUANIDINE DERIVATIVE” (ASTELLAS PHARMA INC., priority 2007, published 2011)
pKi: −log10 of the molar value.

Assays:
human 5-HT5A receptor = target: T1, human 5-HT5A receptor (Homo sapiens, UniProt P47898); test: Test on a human 5-HT5A receptor binding inhibition ([3H]5-CT); conditions: membrane from HEK293 cells expressing human 5-HT5A receptor; Ki calculated from IC50 and Kd 4.95 nM
T1 construct: expressed in transfected cells; membrane preparation
T1 sequence (P47898 whole entry): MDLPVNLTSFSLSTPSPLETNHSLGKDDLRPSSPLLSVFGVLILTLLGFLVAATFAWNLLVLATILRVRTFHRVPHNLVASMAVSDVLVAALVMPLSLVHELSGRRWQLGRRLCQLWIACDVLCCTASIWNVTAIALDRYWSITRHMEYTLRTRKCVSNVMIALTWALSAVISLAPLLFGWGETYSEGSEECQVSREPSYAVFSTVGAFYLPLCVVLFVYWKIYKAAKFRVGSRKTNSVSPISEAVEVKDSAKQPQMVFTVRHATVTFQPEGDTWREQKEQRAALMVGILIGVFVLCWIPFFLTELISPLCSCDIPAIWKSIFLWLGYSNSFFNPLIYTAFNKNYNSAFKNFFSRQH
Procedure, shortened: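 Membranes came from G418-selected HEK293 cells expressing human 5-HT5A, in Tris pH 7.4 with MgSO4 and EDTA. They were preincubated 15 min at RT with compound, then 2 nM [3H]5-CT solution was added for 60 min at 37 °C, followed by GF/C filtration and counting. IC50 used 1 µM 5-CT as 100%; Ki by Cheng–Prusoff (Kd 4.95 nM, Scatchard).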

Male ddY mouse = test: Spontaneous alternation behavior (Y-maze) impaired by Scoporamine in mice; type: in vivo; conditions: dose of 0.03 mg/kg, oral, Scoporamine 0.5 mg/kg i.p., p<0.05
Protocol: An improvement effect for spontaneous alternation behavior caused by Scoporamine or MK-801 in mice
An effect of the compound (I) on improvement on cognitive impairment was evaluated by using a known performance test method as a model with short-term learning disorder.
The compound to be tested was administered orally 10 to 30 minutes before the test, and 0.5 mg/kg Scoporamine or 0.15 mg/kg MK-801 (for a normal group, physiological saline) was administered intraperitoreally, and the test was performed after 20 minutes. […]
A mouse was placed at the end of one arm of a Y-maze having arms with the same length in three directions, and then explored freely and the number of arm entries was counted for 8 minutes. […] The ratio of the number of the behaviors to the total number of entries was calculated as an alternation rate by the following formula: […]
If a significant difference between the normal group and the control group (Student's t test) was approved in the alternation rate (%), it was considered to have learning disorder by the administration of Scoporamine or MK-801. By carrying out a Dunnett's test on the group administered with the compound to be tested relative to the control group, the presence or absence of an action of the compound to be tested on learning disorder was evaluated. […]

Male ICR mouse [1] = test: Hyperactivity caused by methamphetamine (MAP) in mice, infrared motion measurement; type: in vivo; conditions: dose of 0.03 mg/kg, oral; MAP 1 mg/kg i.p.; P<0.05
Protocol: (§1) Various Drug Evaluations on a Drug for Increasing the Motion of Mice (methamphetamine, MK-801) (Radiated Infrared Motion Measurement)
(§2) An effect of the compound (I) on improvement on schizophrenia by was evaluated by measuring the inhibited motion through the administration of the compound in a model having a symptom caused by methamphetamine (which is hereinafter simply referred to MAP) and MK-801.
(§3) An animal was taken out of a breeding cage, orally administered with a compound to be tested, and then placed into a cage for breeding. After 30 minutes, the animal was put into a cage for measurement, and the motion with the compound to be tested alone was measured. Further, after 30 to 90 minutes, the animal was taken out, and intraperitoneally administered with a drug for increasing the motion (MAP; 1 mg/kg or MK-801; 0.3 mg/kg, dissolved in a physiological saline, respectively). Then, the motion for a certain period of time (60 minutes) was measured by using a motion measurement device (CompACT AMS from Muromachi Kikai Co., Ltd.) by means of an infrared sensor.
(§4) For a normal mouse (a mouse administered with physiological saline) and a mouse administered with a drug for increasing the motion, a Student's T test was performed for evaluation for each interval. […]

Male ICR mouse [2] = test: Hyperactivity caused by MK-801 in mice, infrared motion measurement; type: in vivo; conditions: oral, MK-801 0.3 mg/kg i.p., P<0.05
Protocol: as §1, §2, §3, §4

Row | SMILES | pKi (human 5-HT5A receptor) | improvement of alternation rate impaired by Scoporamine (Male ddY mouse) | inhibition of hyperactivity caused by methamphetamine (Male ICR mouse [1]) | inhibition of hyperactivity caused by MK-801 (Male ICR mouse [2]; dose of 0.03 mg/kg) | inhibition of hyperactivity caused by MK-801 (Male ICR mouse [2]; dose of 0.1 mg/kg)
1 | NC(N)=NC(=O)c1ccc2c(c1)C(c1ccccc1)=CCC2 [Example 2-37] | 8.52 to 9.52 | significantly improved | significantly inhibited |  | 
2 | COc1ccccc1C1=CCCc2ccc(C(=O)N=C(N)N)cc21 [Example 2-06] | 8.52 to 9.52 |  |  | significantly inhibited | 
3 | Cc1ccc(C2=CCOc3ccc(C(=O)N=C(N)N)cc32)c(F)c1 [Example 1-47] | 8.52 to 9.52 |  |  |  | significantly inhibited
